The EC50 is the midpoint of the concentration-response curve. What is called CC50 is the concentration giving 50% cytotoxicity.

Read-outs that look alike come from different tables or passages of the source.

The subject of one series is S. mansoni schistosomula. Nature of the series: Larval HTS and larval dose response (image-based phenotype and motility of schistosomula). Conditions: for EC50: Schistosoma mansoni, 72 h, 3 day assay, geometric mean; for Motility score / Phenotype score: 10μM control wells, negative control adjusted to zero. Type of series: cell-based, Schistosoma mansoni. As to the method:
Experiments were performed using the Puerto Rican strain of S. mansoni maintained in Biomphalaria glabrata and CD1 mice. The strain of snail was one bred by Prof Mike Doenhoff (Nottingham University) for high susceptibility to S. mansoni and ease of breeding in large numbers to high density. Careful attention was paid to controlling infections with rotifers which otherwise would contaminate the HTS schistosomula preparations as well as affecting snail viability. This included recovery of egg masses on short length pieces of polypropylene tubing placed into the breeding tanks and treatment of these with 3 x 10 seconds immersion in 70% ethanol with 3 minutes soaking in clean water in between alcohol treatments. Schistosomula were mechanically prepared as previously described with the modification of using a 45% and 70% Percoll gradient, and the cercarial heads recovered from the 70% layer. All centrifugation steps were done at 350x g. The schistosomula generated were then incubated overnight in M169 supplemented with 100U/ml Penicillin, 300μg/ml Streptomycin, 0.25μg/ml Fungizone (Amphotericin B) (Gibco, UK) and 5% Foetal Calf serum.
The larval HTS was run as described previously. Compound libraries were provided in 384 well plates as liquid either (i) small volumes in polypropylene 384 V-bottom storage plates (Greinerbio-one) that were diluted and 500nL dispensed into black 384 imaging plates (ViewPlate 6007460; PerkinElmer) using the Biomek FxP (Beckman Coulter) or (ii) in an assay-ready format from which a 40nL volume was transferred into wells of imaging plates. […] Therefore, to prevent fungal contamination 0.25μg/ml (0.27μM) of amphotericin B (AMP-B) was added to cultures both during the overnight culture prior to plating and during the 3 day assay.
The primary HTS and subsequent juvenile and adult screens were run as single point (SP) assays at 10–12.5μM depending on the concentrations in the compound collections. Compounds were tested in duplicate. Where necessary, repeat testing was carried out on re-supplied liquid samples.
(§1) Compounds with activity against all three parasite stages were tested in parallel dose response (DR) assays against juvenile worms and MRC-5 cells. Promising compounds were then tested in the adult DR. For the parasite DR (larvae, juveniles and adults) the concentrations tested were two fold dilutions starting from 2x the primary screening concentrations (i.e. 20–25μM).
(§2) IC50 values were calculated from the drug concentration–response curves using Microsoft XLfit version 5.1.0.0 (2006–2008 ID Business Solutions Ltd). Results were expressed as the geometric mean IC50.

In series [1] the test system is S. mansoni juvenile worms. The series can be described thus: Juvenile worm assay (3 week old worms), single point and dose response. It is filed as cell-based. Conditions: Schistosoma mansoni. How it is done:
(§3) For production of S. mansoni juvenile or adult worms, mice were infected subcutaneously under mild isoflurane (Merial Animal Health Ltd (UK)) anaesthesia with, respectively 1400 (for juveniles) or 450 cercariae (for adults). Worms were recovered from infected mice using sterile techniques by portal perfusion 3 weeks (for juveniles) or 6 weeks (for adults) post-infection using warm perfusion medium (Dulbecco’s Modified Eagle’s Medium [DMEM], 2mM L-glutamine, 100 Units/ml penicillin, 100μg/ml streptomycin, 20mM Hepes, 10 Units/ml heparin [Sigma, UK] [8]. Adult worms were washed free of red blood cells using the perfusion medium, and finally placed in culture in complete medium (cDMEM: DMEM, 2mM L-glutamine, 100 Units/ml penicillin, 100μg/ml streptomycin, 10% foetal calf serum (FCS) at 37°C, in an atmosphere of 5% CO2. Juvenile worms were sedimented successively following washing with cold perfusion medium and then suspended in cold cDMEM until dispensed to avoid attachment to the plastic tubes.
(§4) For the juvenile assay the concentration of worms was adjusted to 40/ml cDMEM and, prior to dispensing, the suspension was cooled on ice to prevent adherence of the worms to the plastic bottles. After swirling to resuspend worms,150μL of suspension was added to the wells of 96 well microtitre plates (Nunc, Thermo Fisher Scientific, UK). Wells were quickly checked and those with <5 worms were marked. The remainder were made up to 200μL and the deficient wells topped up with a worm suspension to ensure that all wells had ≥5 worms. The adult worm assay was as described in [8] except that 1ml cultures containing 3 worm pairs were generally used. Both the juvenile and adult worm assays were assessed for activity on days +1 and +5. Drug effects were determined by assessing the viability of individual worms and calculating the mean percentage inhibition, a hit being defined as ≥70% reduction in viability.
(§5) The primary HTS and subsequent juvenile and adult screens were run as single point (SP) assays at 10–12.5μM depending on the concentrations in the compound collections. Compounds were tested in duplicate. Where necessary, repeat testing was carried out on re-supplied liquid samples. All compounds of interest were re-tested as solid compounds or by repeat synthesis and activity confirmed.
as §1, §2

The subject of the next series is S. mansoni adult worms. Nature of the series: Adult worm assay, single point and dose response. It is filed as cell-based. Conditions: Schistosoma mansoni. As to the method:
as §3, §4, §5, §1, §2

Series [2] is described as follows: Cytotoxicity assay (Alamar blue). Conditions: human. It is filed as cell-based. How it is done:
Activity against mammalian cells was determined using MRC-5 cells. Cells were maintained in Minimum Essential Medium supplemented with glutamax (Gibco, UK), 1% non-essential amino acids (Gibco, UK) and 10% Foetal bovine serum (Gibco, UK). They were harvested by treatment with 0.25% Trypsin-EDTA for 3 minutes and diluted to 1x10^5/ml. 100μl aliquots of the cell suspension were then plated in 96 well plates (Nunc, Thermo Fisher Scientific, UK). The plates were left to incubate for 24 hours at 37°C and 5% CO2 in a humidified incubator. Cytotoxicity DR assays were set up 24 hours post incubation at 5% CO2 and 37°C, with compounds prepared at 3-fold dilutions starting from 50μM. Dilutions were added to the cells such that the final % DMSO/well was 0.5%. Each drug concentration was tested in duplicate. On each 96 well plate there were negative control wells of media only, MRC-5 cells only and MRC-5 cells with 0.5% DMSO. For positive control wells doxorubicin hydrochloride (Sigma-Aldrich, UK) was added to the cells at 100μM concentration. The cultures were then maintained for a further 72 hours at 37°C and 5% CO2. Drug cytotoxicity was determined using the redox indicator Alamar blue (AbD Serotec, UK). 10μl of Alamar Blue was added to each well and the plates incubated for 4 hours at 37°C and 5% CO2 atmosphere. The fluorescence intensity was measured using a Spectramax Gemini plate reader (Molecular Devices, UK) using an excitation wavelength of 530 nm and an emission wavelength of 580 nm.
as §2
For orientation: The colour change of resazurin is a common sign of viable cells or microbes.

Where [3] appears, read: 24 h, day 1, read-out: Juvenile (% motility reduction) DAY 1.
[4] abbreviates: 120 h, day 5, read-out: Juvenile (% motility reduction) DAY 5.
The mark [5] stands for this setting: first value of cell, geometric mean, * n = 1.
Where [6] appears, read: value in parentheses (second sample; solid vs original liquid sample).
The mark [7] stands for this setting: 24 h, day 1, read-out: Adult % motility reduction DAY 1.
Where [8] appears, read: 120 h, day 5, read-out: Adult % motility reduction DAY 5.
The mark [9] stands for this setting: MRC-5 cells, first value of cell, 72 hours, read-out: MRC5 CC50.
[10] abbreviates: MRC-5 cells, value in parentheses (second sample; solid vs original liquid sample), read-out: MRC5 CC50.

Take `c1ccc(Oc2ccc(-c3cncc(-c4ccc5[nH]ccc5c4)n3)cc2)cc1` [compound 2045]: the EC50 with S. mansoni schistosomula turned out to be 1.4 µM; in series [1] (setting [5]), 2.1 µM; in series [1] (setting [6]), 3.6 µM; with S. mansoni adult worms (first value of cell, * n = 1) it was 3.7 µM; in the series with S. mansoni adult worms (setting [6]), 11 µM. Moreover, the inhibition at 12.5 µM in series [1] (setting [3]) turned out to be 50%; in series [1] (setting [4]), 100%; in the series on S. mansoni adult worms (setting [7]), 37%; in the series on S. mansoni adult worms (setting [8]), 88%. The CC50 at 72 h in series [2] (setting [9]) came out at 20 µM.

Turning to `COc1ccc(-c2nnc3ccc(-c4cccc(C(C)C)c4)cn23)cc1OC` [compound 1507], the EC50 with S. mansoni schistosomula amounted to 6.6 µM; in series [1] (setting [5]) it was 4 µM; in series [1] (setting [6]), 9.8 µM; in the series with S. mansoni adult worms (first value of cell, * n = 1) it was 1.6 µM; with S. mansoni adult worms (setting [6]), 3 µM. Moreover, the inhibition at 12.5 µM turned out to be 75% in series [1] (setting [3]), 75% in series [1] (setting [4]), 75% with S. mansoni adult worms (setting [7]) and 88% in the series on S. mansoni adult worms (setting [8]). Further, the CC50 at 72 h in series [2] (setting [9]) amounted to 18.6 µM.

For `COc1ccc(-c2cnc3cnc(-c4cccc(OC(C)C)c4)cn23)cc1` [compound 1945], the EC50 in the series with S. mansoni schistosomula is 6.7 µM; in series [1] (setting [5]), 5.7 µM; in series [1] (setting [6]), 13.7 µM; in the series with S. mansoni adult worms (first value of cell, * n = 1), 4.9 µM. Besides, the inhibition at 12.5 µM (in series [1] (setting [3]); in series [1] (setting [4]); with S. mansoni adult worms (setting [7]); with S. mansoni adult worms (setting [8])) was 75% each time. Also, in series [2] (setting [9]), the CC50 at 72 h was found to be 40.1 µM.

As for `Clc1ccc(SCc2cc(N3CCCC3)nc(-c3ccccn3)n2)cc1` [compound 1716], the EC50 in the series on S. mansoni schistosomula was 0.3 µM; in series [1] (setting [5]), 11 µM; in series [1] (setting [6]), 9.5 µM; in the series on S. mansoni adult worms (first value of cell, * n = 1), 2.8 µM; in the series on S. mansoni adult worms (setting [6]) it was 5.4 µM. Moreover, the inhibition at 12.5 µM in series [1] (setting [3]) was found to be 0%; in series [1] (setting [4]), 84%; with S. mansoni adult worms (setting [7]), 64%; with S. mansoni adult worms (setting [8]), 98%. Further, the CC50 at 72 h in series [2] (setting [9]) and in series [2] (setting [10]) was above 50 µM throughout.

On to `COc1ccccc1NC1=NN=C(c2cccc(N3CCCC3=O)c2)CS1` [compound 2389], for which the EC50 with S. mansoni schistosomula is 6.1 µM; in series [1] (setting [5]) it was 5.1 µM; in series [1] (setting [6]), 5 µM; with S. mansoni adult worms (first value of cell, * n = 1), 6 µM; with S. mansoni adult worms (setting [6]), 7.1 µM. The inhibition at 12.5 µM in series [1] (setting [3]) stood at 0%; in series [1] (setting [4]), 100%; with S. mansoni adult worms (setting [7]), 12.5%; in the series on S. mansoni adult worms (setting [8]), 100%. Besides, the CC50 at 72 h in series [2] (setting [9]) and in series [2] (setting [10]) was above 50 µM in each case.

As for `Cc1c(-c2cnccn2)ssc1=S` [Oltipraz], the Motility score is -0.91 ±0.04 with S. mansoni schistosomula (Enamine library plates), -0.93 ±0.03 in the series with S. mansoni schistosomula (GSK library plates), -0.95 ±0.02 in the series with S. mansoni schistosomula (MMV library plates) and -0.94 ±0.02 with S. mansoni schistosomula (Pfizer library plates). Besides, the Phenotype score in the series on S. mansoni schistosomula (Enamine library plates) is listed as -0.49 ±0.13; with S. mansoni schistosomula (GSK library plates), -0.64 ±0.06; with S. mansoni schistosomula (MMV library plates, mean ±SD), -0.55 ±0.06; with S. mansoni schistosomula (Pfizer library plates) it was -0.56 ±0.08. For the same compound, the EC50 in the series with S. mansoni schistosomula worked out at 0.5 µM; in series [1] (setting [5]), 0.8 µM; in the series on S. mansoni adult worms (first value of cell, * n = 1), 0.85 µM. Moreover, the inhibition at 12.5 µM in series [1] (setting [3]) stood at 51%; in series [1] (setting [4]) it was 100%; with S. mansoni adult worms (setting [7]) it was 50%; in the series on S. mansoni adult worms (setting [8]), 95%. In series [2] (MRC5 CC50), this compound came in with a CC50 at 72 h above 50 µM.

On to `Cc1ccccc1C(=O)N1N=C(Nc2ccccc2)SC1(C)C` [compound 1355], for which the EC50 was determined as 6.7 µM in the series on S. mansoni schistosomula; 5.8 µM in series [1] (setting [5]); 14.3 µM in series [1] (setting [6]); 5.3 µM in the series with S. mansoni adult worms (first value of cell, * n = 1); 11.2 µM with S. mansoni adult worms (setting [6]). The inhibition at 12.5 µM came out at 75% in series [1] (setting [3]), 75% in series [1] (setting [4]), 75% in the series with S. mansoni adult worms (setting [7]) and 100% in the series on S. mansoni adult worms (setting [8]). Moreover, the CC50 at 72 h in series [2] (setting [9]) was above 50 µM; in series [2] (setting [10]) it was 33.8 µM.

Turning to `c1ccc(-c2[nH]c3ccccc3c2C(c2ccccn2)N2CCCC2)cc1` (stereo not shown) [compound 1956], the EC50 with S. mansoni schistosomula is 0.5 µM; in series [1] (setting [5]) it was 2.5 µM; in series [1] (setting [6]), 3.7 µM; in the series on S. mansoni adult worms (first value of cell, * n = 1), 3.2 µM; in the series on S. mansoni adult worms (setting [6]), 11.8 µM. Moreover, the inhibition at 12.5 µM in series [1] (setting [3]) is 75%; in series [1] (setting [4]) it was 100%; with S. mansoni adult worms (setting [7]), 56%; in the series on S. mansoni adult worms (setting [8]) it was 81%. Also, the CC50 at 72 h in series [2] (setting [9]) was above 50 µM.

These data come from publication PMC4851381, “High Throughput Screening Identifies Novel Lead Compounds with Activity against Larval, Juvenile and Adult Schistosoma mansoni” (PLoS Neglected Tropical Diseases, 2016).
